Values quoted from earlier work as cited in patent US20110251275A1, “OMEGA-3 FATTY ACIDS FOR REDUCTION OF LP-PLA2 LEVELS” (priority 2006, published 2011).

Test system: Lp-PLA2
Conditions: for reduction of Lp-PLA2: Tsimihodimos et al. 2002, patients treated

Structure (SMILES)	reduction of Lp-PLA2	reduced Lp-PLA2 levels (O'Donoghue et al. 2006)
CC(C)OC(=O)C(C)(C)Oc1ccc(C(=O)c2ccc(Cl)cc2)cc1 [fenofibrate, 2-[4-(4-chlorobenzoyl)phenoxy]-2-methyl-propanoic acid, 1-methylethyl ester]	22-28%	
CC(C)c1c(C(=O)Nc2ccccc2)c(-c2ccccc2)c(-c2ccc(F)cc2)n1CC[C@@H](O)C[C@@H](O)CC(=O)O [atorvastatin]	28-42%	20%
